Experimental data published in paper PMC9861180, “Nintedanib-αVβ6 Integrin Ligand Conjugates Reduce TGFβ-Induced EMT in Human Non-Small Cell Lung Cancer” (International Journal of Molecular Sciences, 2023).
Entries after “also recorded” stand apart in the source; their conditions may differ.

Columns and labels:
[1] = tested on: αvβ6 integrin receptor; assay: Expression of αvβ6 integrin by cytofluorimetric analysis; assay type: cell-based, human
Description: (§1) Expression of αvβ6 integrins was determined by cytofluorimetric analysis. Human NSCLC A549 and H1975 cells, either grown in standard conditions or exposed to TGFβ treatment, were detached from the substrate using Accutase® to minimize the exposure of the extracellular membrane proteins to the enzymatic activity of trypsin. The cells were then incubated with primary antibodies, in the absence of membrane permeabilization. The cytofluorimetric procedures ensured quantification of the αvβ6 integrin receptor protruding outside the cells. […] These percentages increased to 66% of the parental population in A549 cells and to 55% in H1975, when the cells were exposed to TGFβ for 48 h (Figure 2B,D). […] In addition, we evaluated αvβ6 integrin expression on human melanoma cells (SSM2c, Figure S4A) and murine fibroblasts (L929, Figure S5A), whereas expression of the αvβ3 integrin receptor in these cells had been previously evaluated.
(§2) A549, L929, and K562 cells were allowed to grow in standard conditions; in several experiments, A549 cells were grown in the presence or in the absence of recombinant human TGFβ (10 ng/mL) (#11343160 Immunotools Friesoythe Germany). […] After extensive washes using cytofluorimetric buffer, cells were analyzed using a BD FACSCanto™ flow cytometry system (BD Bioscience, Eysins, Switzerland).

[2] = tested on: αvβ3 integrin; assay: Expression of αvβ3 integrin by cytofluorimetric analysis; assay type: cell-based, human
Description: as §1
as §2, with “Switzerland). […]” for “Switzerland).”

[3] = tested on: A549 cells; assay: Inhibition of A549 cell adhesion to fibronectin; assay type: cell-based, human
Description: (§3) To verify whether conjugates 1–3 were able to bind the integrin receptor efficiently and compete with the receptor’s natural ligand (fibronectin) for the binding site, we performed an inhibition of adhesion assay. In this assay, the biological effects of the three conjugated compounds were compared to the inhibitory ability of the unconjugated ligand 4. Inhibition of A549 and H1975 cell adhesion to fibronectin was determined in both untreated and TGFβ-treated cells. The assay was carried out with increasing concentrations of compounds 1–3 and unconjugated cyclic peptidomimetic 4. […]
(§4) Figure 3 Inhibition of A549 (A,B) and H1975 (C,D) cell adhesion to FN (10 μg/mL) in the presence of compounds 1–3, or c(AmpLRGDL) 4 (2 h). […] The inhibitory activity was calculated as the percentage of cell adhesion to FN in untreated cells and was expressed as mean ± SEM. […]
(§5) 96-well plates were coated with fibronectin (10 µg/mL) (sc-29011 SantaCruz, D.B.A., Milano, Italia) by overnight incubation at 4 °C. […] Next, A549 cells were washed by centrifugation with PBS, counted, and suspended in serum-free medium at 0.6 × 10^6 cells/mL. […] After 2 h of incubation at […], cells were permeabilized with 50 µL of DMSO (C6164, Sigma-Aldrich Merk Life Science S.r.l. Milano, Italy) and plates were examined at 550 nm in a counter BioRad (550 Microplate Reader, BioRad, Milano, Italy). […]

[4] = tested on: H1975 cells; assay: Inhibition of H1975 cell adhesion to fibronectin; assay type: cell-based, human; settings: untreated and TGFβ-treated, increasing concentrations
Description: as §3, §4, §5

[5] = tested on: A549 cells; assay: Inhibition of A549 cell adhesion to vitronectin; assay type: cell-based, human; settings: A549 cells and TGFβ-treated A549 cells
Description: The highest levels of inhibition in A549 cells were registered with compounds 1 and 2, which were able to inhibit more than 50% adhesion in TGFβ-treated cells even at concentrations of 1 μM, a percentage that raised to 70% when these compounds were tested at 5 μM. […] Moreover, high levels of inhibition were registered in H1975 cells with compounds 1–3 that reached a minimum of 50% inhibition of adhesion in TGFβ-treated cells at 1 μM. These percentages increased to 70% when the compounds were tested at 5 μM. […] As already mentioned, the expression of αvβ3 integrins in A549 cells was reduced after exposure to TGFβ. Since αvβ3 integrins are one of the most avid receptors for vitronectin (VN), we investigated whether compounds 1–4 were able to inhibit A549 cell adhesion to VN. We discovered that, in A549 cells and in TGFβ-treated A549 cells, cell adhesion to vitronectin was not inhibited by the three different conjugated compounds nor by compound 4 (Figure S2E); this lack of efficacy is probably due to the lower binding affinity of the integrin ligand towards the αvβ3 integrin receptors.
2. […]
Figure S2. […] The inhibitory activity was calculated as the percentage of cell adhesion to VN in untreated cells and was expressed as means ± SEM. […]

[6] = tested on: α-smooth muscle actin (α-SMA); assay: α-smooth muscle actin protein expression, Western blot; assay type: cell-based, human; settings: TGFβ-treated A549 cells, 5 μM, 24 h
Description: Data are expressed as means ± SEM of fold increment compared to untreated cells normalized to α-tubulin.
Western blot analysis was performed on whole-cell lysates of A549 cells, exposed for 48 h to TGFβ treatment and subsequently exposed to 5 µM concentrations of different compounds. After 24 h incubation, media were rapidly removed and cell monolayers were lysed as previously described in RIPA lysis buffer, with the addition of proteinase inhibitor cocktail (04693124001 Roche Merk Life Science S.r.l., Milano, Italy) for 30 min in ice [35]. Protein content was quantified, and forty-fifty micrograms of total proteins were separated on Bolt® Bis-Tris Plus gels 4–12% (Life Technologies, Monza, Italy). Fractionated proteins were transferred from the gel to a PVDF nitrocellulose membrane using iBlot 2 system (Life Technologies, Monza, Italy). Membranes were blocked for 5 min at room temperature, with EveryBlot Biorad blocking buffer (Life Technologies, Monza, Italy). […] The protein bands were analyzed by the Odyssey Infrared Imaging System (Lycor Bioscience) using software for protein quantification. […]

[7] = tested on: tumor spheroids of TGFβ-treated A549 cells and murine L929 fibroblasts; assay: Inhibition of 3D tumor spheroid growth; assay type: cell-based, human; settings: 5 µM, 72 h, vs untreated spheroids
Description: Heterogeneous spheroids of tumor cells and fibroblasts were generated using the hanging drop technique to mimic the complex three-dimensional environment of tumor tissues. […] Next, the fluorescence intensities associated with each cell population were analyzed as previously described.
Hanging drop tumor spheroids were prepared starting from 1:1 mixed cell population (1000 cells/25μL) of TGF𝛽-treated A549 cells and murine L929 fibroblasts. […] (C) Quantitative analysis of inhibition of 3D growth and (D) 3D spheroid internalization of the compounds after 72 h exposure. Data are representative of three independent experiments (n = 6) and expressed as means ± SEM. * p < 0.05 vs. untreated spheroids.
A549 cells, exposed for 48 h to TGFβ treatment, were mixed in a 1:1 ratio with murine L929 fibroblast (40,000/mL) in order to obtain 3D multicellular tumor spheroids (MCTS) resembling cellular heterogenicity of the neoplastic lesion. […] After one week, multicellular tumor spheroids were completely formed. Tumor spheroids were next used in different experimental procedures. […] For 3D growth inhibition, spheroids were placed on 2% agarose coated dishes in complete medium containing the different treatments at 5 µM concentration. Spheroid areas were analysed and compared to time 0 and used to evaluate the inhibition of 3D growth (yellow lines). Images of all spheroids were taken daily using the EVOS XL Core Imaging System with a 10x objective (Thermofisher Scientific, Waltham, MA, USA ). All images were analysed using the open-source software ImageJ (1.52a, National Institutes of Health, Bethesda, MD, USA).

[8] = tested on: tumor spheroids of TGFβ-treated A549 cells and murine L929 fibroblasts; assay: Tumor spheroid 2D flat surface migration and growth; assay type: cell-based, human; settings: 5 µM, fibronectin-coated flat surface
Description: Heterogeneous spheroids of tumor cells and fibroblasts were also used to evaluate the ability of the compounds to inhibit 2D flat surface migration and growth once the spheroids were allowed to attach to a suitable surface (Figure 8).
Hanging drop tumor spheroids were allowed to spread on a 2D fibronectin-coated flat surface. […] Data are representative of three independent experiments (n = 6) and expressed as means ± SEM. * p < 0.05 vs. untreated spheroids.
A549 cells, exposed for 48 h to TGFβ treatment, were mixed in a 1:1 ratio with murine L929 fibroblast (40,000/mL) in order to obtain 3D multicellular tumor spheroids (MCTS) resembling cellular heterogenicity of the neoplastic lesion. […] After one week, multicellular tumor spheroids were completely formed. Tumor spheroids were next used in different experimental procedures. We evaluated 2D flat surface inhibition of migration and growth, and the inhibition of 3D growth. For 2D flat surface migration and growth inhibition assays, the spheroids were placed on regular culture dishes and allowed to spread and grow in complete medium containing different compounds at 5 µM concentration. The areas of cell spreading were used as parameters for migration (red lines), while the areas of the spheroid core were used as parameters for 2D growth (yellow lines). For 3D growth inhibition, spheroids were placed on 2% agarose coated dishes in complete medium containing the different treatments at 5 µM concentration. Spheroid areas were analysed and compared to time 0 and used to evaluate the inhibition of 3D growth (yellow lines). Images of all spheroids were taken daily using the EVOS XL Core Imaging System with a 10x objective (Thermofisher Scientific, Waltham, MA, USA ). All images were analysed using the open-source software ImageJ (1.52a, National Institutes of Health, Bethesda, MD, USA).

[9] = tested on: αvβ6 integrin; set-up: method as in PMID 32634263; settings: cited from earlier work
[10] = tested on: αvβ3 integrin; set-up: method as in PMID 32634263; settings: isolated integrin; cited from earlier work
[11] = target: T1, human recombinant VEGFR2 (Homo sapiens, UniProt P35968); assay: VEGFR2 tyrosine kinase inhibition, radiometric (Eurofins); assay type: biochemical; settings: nine-point concentration-response curve, radiometric detection; read-out: IC50, inhibition of VEGFR2 phosphorylation
T1 construct: purchased Eurofins (Cerep laboratories; KinaseProfiler, IC50 Profiler service)
T1 sequence (P35968 20-1356): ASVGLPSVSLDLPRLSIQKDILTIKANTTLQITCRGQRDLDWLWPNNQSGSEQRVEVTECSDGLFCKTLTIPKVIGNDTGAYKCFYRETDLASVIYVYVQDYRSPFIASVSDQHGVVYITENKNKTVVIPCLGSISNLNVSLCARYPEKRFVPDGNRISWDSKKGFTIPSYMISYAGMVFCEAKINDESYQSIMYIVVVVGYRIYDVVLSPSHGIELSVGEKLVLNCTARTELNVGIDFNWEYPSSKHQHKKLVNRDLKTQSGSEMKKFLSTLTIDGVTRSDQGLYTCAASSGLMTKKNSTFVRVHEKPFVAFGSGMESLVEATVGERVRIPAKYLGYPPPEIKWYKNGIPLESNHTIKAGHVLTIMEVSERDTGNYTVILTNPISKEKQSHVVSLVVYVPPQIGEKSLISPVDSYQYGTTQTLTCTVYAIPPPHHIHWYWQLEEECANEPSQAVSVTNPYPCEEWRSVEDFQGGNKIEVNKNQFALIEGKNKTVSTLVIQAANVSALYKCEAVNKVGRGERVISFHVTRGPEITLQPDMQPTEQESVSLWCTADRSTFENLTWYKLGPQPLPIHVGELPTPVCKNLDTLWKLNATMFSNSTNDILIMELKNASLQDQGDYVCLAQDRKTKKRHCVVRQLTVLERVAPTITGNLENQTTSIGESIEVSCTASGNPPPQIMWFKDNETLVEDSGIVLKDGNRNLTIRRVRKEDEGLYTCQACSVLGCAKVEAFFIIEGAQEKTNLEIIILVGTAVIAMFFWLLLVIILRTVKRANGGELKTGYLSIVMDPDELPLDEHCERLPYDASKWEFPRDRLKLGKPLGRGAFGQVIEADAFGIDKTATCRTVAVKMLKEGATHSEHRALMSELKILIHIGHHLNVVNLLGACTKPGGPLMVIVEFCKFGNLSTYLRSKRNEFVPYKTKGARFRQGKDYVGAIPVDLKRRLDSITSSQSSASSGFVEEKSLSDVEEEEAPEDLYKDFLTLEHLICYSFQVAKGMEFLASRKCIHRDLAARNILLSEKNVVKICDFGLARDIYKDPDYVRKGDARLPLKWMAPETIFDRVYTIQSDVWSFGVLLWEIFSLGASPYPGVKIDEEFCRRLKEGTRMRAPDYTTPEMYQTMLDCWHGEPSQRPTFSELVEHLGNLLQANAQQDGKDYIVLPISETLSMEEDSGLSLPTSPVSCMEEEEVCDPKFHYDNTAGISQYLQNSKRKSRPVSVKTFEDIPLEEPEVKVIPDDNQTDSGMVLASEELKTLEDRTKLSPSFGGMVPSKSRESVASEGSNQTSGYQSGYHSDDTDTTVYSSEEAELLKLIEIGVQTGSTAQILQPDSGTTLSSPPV
Description: Inhibition of receptor phosphorylation was measured by a radiometric detection method. IC50 values were determined from a nine-point concentration−response curve generated using the standard assay conditions for the target.

[12] = tested on: TGFβ-treated A549 cells; assay: cells; assay type: cell-based, human; settings: 24 h
Description: A549 cell viability was assessed using MTT (3-(4,5-dimethylthiazol-2-yl)-2,5-diphenyltetrazolium bromide) tetrazolium reduction assay (M5655, Sigma Aldrich, Milan, Italy), as described in [58]. Briefly, A549 cells were treated for 48 h in complete medium with TGFβ (10 ng/mL). Next, cells (2.5 × 10^3) were plated into 96-multiwell plates in 100 µL of complete medium. After adhesion, the compounds were added to the medium at different concentrations. After 24 h exposure, the medium was replaced with 100 µL MTT reagent in each well, and plates were incubated at 37 °C. After 2 h, MTT was removed, and the blue MTT–formazan product was solubilized with dimethyl sulfoxide (DMSO, Sigma Aldrich). The absorbance of the formazan solution was read at 595 nm using the microplate reader (Bio-Rad, Milan, Italy). Inhibition of cell proliferation was calculated by the IC50 calculator (AAT Bioquest, Inc., Pleasanton, CA, USA, https://www.aatbio.com/ (accessed on 1 July 2022)).

Q: Which results are given for “TGFβ: recombinant human TGFβ (10 ng/mL) used to induce EMT and αvβ6 expression”?
A: cell population expressing αvβ6 integrin receptor ([1]; A549 cells exposed to TGFβ (10 ng/mL) for 48 h): 66%; cell population expressing αvβ6 integrin receptor ([1]; H1975 cells exposed to TGFβ (10 ng/mL) for 48 h): 55%; αvβ3 integrin expression ([2]; A549 cells exposed to TGFβ (10 ng/mL) 48 h, 72% without TGFβ): 32%; αvβ3 integrin expression ([2]; H1975 cells, unaffected by TGFβ treatment): 98%

Q: Which results are given for c(AmpLRGDL) [compound 4]?
A: level of inhibition of cell adhesion to fibronectin ([3]; even TGFβ-treated, all concentrations tested): ≤ 50%; inhibition of cell adhesion to fibronectin (in words) ([3]; untreated and TGFβ-treated, increasing concentrations): weak concentration dependence; inhibition of cell adhesion to fibronectin (in words) [4]: weak concentration-dependence; inhibition of cell adhesion to vitronectin [5]: not inhibited; α-SMA protein expression [6]: not able to affect; inhibition of 3D spheroid growth [7]: did not induce a significant reduction; also recorded: transient reduction; 2D flat surface migration of tumor spheroids [8]: did not inhibit cell growth and migration; also recorded: considerably weaker effect; 2D growth of tumor spheroids (spheroid core) [8]: did not inhibit cell growth and migration; also recorded: very weak inhibition; IC50 ([9]; isolated integrin): 8.3 ± 0.4 nM; selectivity IC50(αvβ3)/IC50(αvβ6) ([9]; isolated integrins): 255; IC50 [10]: 2120 ± 266 nM

Q: Which IC50 [11] does the source give for `COC(=O)c1ccc2c(c1)NC(=O)/C2=C(\Nc1ccc(N(C)C(=O)CN2CCN(CCCCNC(=O)CCc3cn(CCCCCC(=O)N4C[C@@H]5C[C@H]4C(=O)N[C@@H](CC(C)C)C(=O)N[C@@H](CCCNC(=N)N)C(=O)NCC(=O)N[C@@H](CC(=O)O)C(=O)N[C@@H](CC(C)C)C(=O)N5)nn3)CC2)cc1)c1ccccc1` [compound 1] here?
A: 6 nM

Q: What about the IC50 [12] of the same compound?
A: 9.5 µM

Q: For `COC(=O)c1ccc2c(c1)NC(=O)/C2=C(\Nc1ccc(N(C)C(=O)CN2CCN(CCOCCOCCOCc3cn(CCCCCC(=O)N4C[C@@H]5C[C@H]4C(=O)N[C@@H](CC(C)C)C(=O)N[C@@H](CCCNC(=N)N)C(=O)NCC(=O)N[C@@H](CC(=O)O)C(=O)N[C@@H](CC(C)C)C(=O)N5)nn3)CC2)cc1)c1ccccc1` [compound 2], which IC50 [12] is on record?
A: 10.1 µM
